Measured values published in patent US11035008B2, “Biomarkers for cancer” (BERGENBIO ASA, priority 2015, dated 2021).
“Also recorded” adds a separate entry of the source.

Experiments:
OCI-M1 cells = experiment: IC50 of BGB324 by resazurin assay, OCI-M1; format: cell-based; conditions: Homo sapiens, OCI-M1 (non-responder)
Excerpt: (§1) The diversity of AML cells and their responses was investigated using a panel of AML cell lines and assessing their responses after BGB324-treatment.

pErk = pErk in AML cell panel, short term treatment, flow cytometry; format: cell-based, human
Procedure: (§2) Staining of Cells for Flow Cytometry, General Protocol: • Live cells were centrifuged at 300 G for 5 minutes, washed once with PBS and centrifuged again. Cells were then fixed in 4% PFA in PBS for 10 minutes at 37° C., and resuspended in PBS. Unless processed immediately, samples were at this point stored in PBS at 4° C. (up to three weeks) or at −80° C. (for long-term storage). If intracellular epitopes were stained, cells were permebealized in 90% MeOH for 30 minutes on ice. Unless processed immediately, samples were also be stored in 90% MeOH at −20° C. for up to two months. • Further staining procedure (permebealized or non-permebealized cells): • Cells were washed 1× in PBS and blocked in blocking buffer; either PBS+0.5% BSA or PBS+1:1000 Octagam (5 mg/ml) for 15 minutes at room temperature. Thereafter, cells were incubated with primary AB at the indicated dilutions in incubation buffer (IB, PBS+0.5% BSA) for 1 hour at room temperature. Cells were then washed 3× with IB and incubated with secondary AB (conjugated to a fluorescent flurophore) at 1:1000 dilution in IB for 30 minutes at room temperature. Finally, cells were washed 3× in IB and resuspended in PBS. Cells were analyzed immediately, or stored for up to 24 hours at 4° C. before analysis. • Analysis of cells was done on a BD LSR Fortessa or a BD C6 Accuri flow cytometer, and further processing was done using FlowJo v.7.6. • All incubation steps (but not storage) were done on a spinning wheel or gentle shaker.
as §1
(§3) When investigating phospho-markers, the cells were starved overnight in the appropriate growth medium containing 0.1% FBS, pre-treated with BGB324 at 0.5 and 1 μM for one hour, and stimulated with 10% FBS for 20 minutes (to induce phosphorylation, with BGB324 present). Cells were then fixed and stained for flow cytometric analyses.

[1] = system: MOLM13 systemic xenograft; experiment: Leukemic (CD33/CD45-positive) cells in MOLM13 systemic xenograft model; format: in vivo, mice; conditions: 50 mg/kg for 4 days
Procedure: Material from an in vivo MOLM13 systemic model was also evaluated by flow cytometry. Expression of the previously evaluated biomarkers was examined in cells isolated from bone marrows and spleens of animals with systemic AML disease (MOLM13, inoculated for 7 days prior to treatment) treated with BGB324 at 50 mg/kg for 4 days. The spleens analysed were from the same study that was analysed by microarray, as mentioned above. The bone marrows were from an identical study that was done at a later time point to get more material for flow analyses.
Cells harvested from spleens, blood and bone marrows of the animals were stained with anti CD33 and CD45 antibodies, to determine if systemic disease was established. CD33/CD45-positive cells were found in spleens (around 10-15%), bone marrows (35-40%) and in the blood (2-6%) of the animals, confirming that the disease was established.

pPLCγ1 = pPLCγ1 in AML cell panel, short term treatment, flow cytometry; format: cell-based, human
Procedure: as §2, §1, §3

MOLM13 cells = experiment: IC50 of BGB324 by resazurin assay, MOLM13; format: cell-based; conditions: Homo sapiens, MOLM-13, MOLM13 (responder)
Excerpt: as §1

PHGDH [2] = experiment: Microarray analysis of xenograft material, PHGDH transcript; format: in vivo, mice
Excerpt: PHGDH was included in the biomarker panel following microarray analysis of Mv4-11 and MOLM13 xenograft material after BGB324-treatment.

PHGDH [3] = experiment: PHGDH by western blot in Mv4-11 subcutaneous xenograft tumours; format: in vivo, mice; conditions: for PHGDH in tumour lysates (western blot): Mv4-11 sub-q
Procedure: Western Blot, General Protocol: • For western blot analysis, cells were lysed on ice using NP-40 lysis buffer with protease- and phosphatase inhibitors. Total protein concentration in lysates was measured using a BCA protein assay kit following the manufacturers instructions. 10% NuPAGE® Bis-Tris precast gels were loaded with 30-50 μg of protein in each well diluted in sample buffer and antioxidant. A 1:1 mix of MagicMark™ XP Western Protein Standard (Invitrogen) and SeeBlue® Plus 2 Pre-Stained Standard was used as protein standard. Gels were run at 50V for 20 min, then at 100V for 1 h 30 min. Blotting was done on ice for 1 h 30 min at 100V onto PVDF (pre-activated with MeOH) or nitrocellulose membranes. Membranes were washed in TBS-0.1% Tween-20 (TBS-T), and blocked in TBS-T 5% BSA for at least 1 h at RT. Primary ABs were added at 1:1000 in TBS-T 5% BSA (rabbit-anti-actin AB was added at 1:2000) in TBS-T 5% BSA, and membranes were incubated over night at 4° C. Membranes were then washed 3× in TBS-T, and incubated in HRP-conjugated secondary ABs at 1:5000 dilution in TBS-T 5% milk for 45 min at RT. Membranes were developed for 1 min using ECL-reagents and imaged with chemiluminescence using a Molecular Imager ChemiDoc™ XRS (BioRad). • All incubation- and washing steps were done on a roller.
To validate the reduction of PHGDH in in vivo samples found by microarray, the PHGDH expression in tumour material from in vivo samples was investigated by western blot. […] Therefore, it was investigated at what time point PHGDH is reduced after treatment with a single high dose of BGB324 100 mg/kg.
Tumours where the mice had been treated with a single lower dose of BGB324, 50 mg/kg, were also examined (tumour material was harvested at different time points, from 4-72 hours).

totAxl = experiment: Total Axl in AML cell panel, long-term treatment, flow cytometry; format: cell-based, human
Procedure: as §2, §1
Long-term treatment was done in complete medium, without starvation. The responders were treated with 0.05, 0.1 or 0.3 μM BGB324, whereas the non-responders were treated with only a single dose of 2.5 μM BGB324. The cells were fixed after 24, 48 or 72 hours, and the samples were stored in 90% MeOH at −20° C. until all samples were harvested, and stained for flow at the same time.

[4] = MOLM13, all treatment doses, 1 hour
[5] = Mv4-11, all treatment doses, 1 hour

Nc1nc(Nc2ccc3c(c2)CC[C@@H](N2CCCC2)CC3)nn1-c1cc2c(nn1)-c1ccccc1CCC2 [BGB324, 1-(6,7-dihydro-5H-benzo[6,7]cyclohepta[1,2-c]pyridazin-3-yl)-N3-((7-(S)-pyrrolidin-1-yl)-6,7,8,9-tetrahydro-5H-benzo[7]annulene-2-yl)-1H-1,2,4-triazole-3,5-diamine]
IC50 (OCI-M1 cells): 1.8 µM
pErk (pErk; Kasumi, 1 hour): no significant differences in pErk
phosphorylation of Erk (pErk; [4]): strong and significant reduction
phosphorylation of Erk (pErk; [5]): strong and significant reduction
pErk (pErk; OCI-M1, 1 hour): no significant differences in pErk
percentage of leukemic cells vs. vehicle-treated mice ([1]; blood): significantly higher percentage of leukemic cells
percentage of leukemic cells vs. vehicle-treated mice ([1]; bone marrows): no significant differences
percentage of leukemic cells vs. vehicle-treated mice ([1]; spleens): no significant differences
pPLCγ (pPLCγ1; Kasumi, 1 hour): No response in PLCγ
pPLCγ (pPLCγ1; [4]): significantly reduced
pPLCγ (pPLCγ1; [5]): significantly reduced
pPLCγ (pPLCγ1; OCI-M1, 1 hour): No response in PLCγ
IC50 (MOLM13 cells): 0.45 µM
PHGDH transcript (microarray) (PHGDH [2]; MOLM13 systemic xenograft model, spleen and bone marrow): significantly downregulated; also recorded: significantly reduced
PHGDH transcript (microarray) (PHGDH [2]; Mv4-11 subcutaneous xenograft, 14 days of treatment): one of the most significantly downregulated transcripts; also recorded: significantly downregulated
PHGDH transcript alteration after treatment (microarray) (PHGDH [2]; both Mv4-11 subcutaneous and MOLM13 systemic xenograft models): more than 1.5 fold
PHGDH in tumours (western blot) (PHGDH [3]; Mv4-11, single dose 50 mg/kg, harvested 4-72 hours): stable reduction of PHGDH was observed from 16 hours and onwards
PHGDH in tumours (western blot) (PHGDH [3]; Mv4-11, single dose 100 mg/kg, 6 hours after treatment): not 6 hours after treatment
PHGDH in tumours (western blot) (PHGDH [3]; Mv4-11, single dose 100 mg/kg, 8 hours after treatment): reduction of PHGDH observed in three parallel tumours
PHGDH in tumour lysates (western blot) (PHGDH [3]; 25 mg/kg BID, 50 mg/kg BID or 50 mg/kg QD, 15 days): reduction of PHGDH was observed in most of the tumours
PHGDH in tumour lysates (western blot) (PHGDH [3]; 100 mg/kg single dose, tumours harvested 6 h after dosing): only in one of two tumours
Axl expression (totAxl; Kasumi, 2.5 μM, 24-72 hours): goes significantly up
Axl expression (totAxl; MOLM13, 0.3 μM, 24 hours): slight and significant reduction of Axl
Axl expression (totAxl; Mv4-11, 0.3 μM, 24 hours and 72 hours): slight and significant reduction of Axl
Axl expression (totAxl; OCI-AML5, 2.5 μM, 24-72 hours): goes significantly up
